The values that follow come from US20180369186A1, “METHOD FOR MODULATING AUTOPHAGY AND APPLICATIONS THEREOF” (JAWAHARLAL NEHRU CENTRE FOR ADVANCED SCIENTIFIC RESEARCH, priority 2015, published 2018).

Assay [1] has as its system Pot1-GFP (peroxisomes). As to the kind of experiment: Pot1-GFP pexophagy assay. The format is cell-based, S. cerevisiae. The protocol: Pot1-GFP positive strains are allowed to grow till the A600 reached 0.8-1 in YPD. Peroxisome biogenesis is induced by growing these cells in oleate medium (0.1% oleate, 0.5% Tween-40, 0.25% yeast extract, 0.5% peptone, and 5 mM phosphate buffer) for 12hours. Cells are harvested, washed twice to remove traces of oleate and transferred to starvation medium without nitrogen, at inoculum density A600 3, to induce pexophagy. Cells are collected at various time intervals after pexophagy induction and processed by TCA method.
Pot1-GFP positive strains are allowed to grow in yeast extract peptone dextrose (YPD) (2% dextrose, 2% peptone and 1% yeast extract) till the Absorbance at 600 nm reaches 0.6-0.8. Peroxisome biogenesis is induced by growing these cells in YPG medium (1% yeast extract, 2% peptone, 3% glycerol) for 12 hours.
Cells are harvested, washed twice to remove traces of oleate and transferred to starvation medium with and without Acacetin, at. inoculum density Absorbance at 600 nm 3/ml, to induce pexophagy. Cells are collected at various time intervals after pexophagy induction and processed by TCA precipitation.

In assay [2] the test system is Atg8. The assay is described as follows: Atg8 immunolocalization in lace plant. Type of assay: cell-based, Aponogeton madagascariensis. The settings on record: two hours; same modulator concentrations as MDC; control 0.90±0.08. The protocol:
Whole leaves are treated for two hours prior to fixation in 100% Methanol at 37° C. and then hydrophilized to 20% methanol by adding distilled water at 60° C. every two minutes for 32 minutes. Samples are then sectioned and placed on a multiwall slide and allowed to air dry for 10 minutes to facilitate membrane permeabilization. Blocking is done for 30 minutes at 37° C. with 4% low fat milk powder in 1× microtubule stabilization buffer MTSB (Modified 2× MTSB stock solution: 15 g PIPES, 1.9 g EDTA, 1.22 g MgSO4*7H2O and 2.5 g KOH—pH 7.0). Primary antibody incubation for anti-rabbit ATG8 (Agrisera, AS14 2769) is done at a 1:1000 dilution in 1× MTSB for 30 minutes at 37° C. Samples are then washed for 5 minutes, 3 times with 1× MTSB. Secondary antibody incubation with Goat anti-rabbit Dylight 488 (Agrisera AS09 633) at a 1:2000 dilution in 1× MTSB is done for 30 minutes at 37° C. and then samples are rinsed as above. Tissues are mounted in Mowiol 4-88 solution (Sigma, 81381) and scanned via confocal microscopy as mentioned above. The mean number of puncta per cell is determined using maximum intensity projections (MIPs) for each replicate. The total number of cells within a field of view are counted manually and the number of puncta are counted automatically using ImageJ.

Assay [3] has as its system autophagy (degradation of firefly luciferase). As to the kind of experiment: Dual luciferase assay to monitor autophagy in real time. Particulars: 1 μM, 10 μM, 25 μM and 50 μM. Type of assay: cell-based, S. cerevisiae. An excerpt: The S. cerevisiae shuttle vectors pRS306 (URA) and pRS305 (LEU) are used to clone the POT1 promoter and the Firefly and Renilla luciferase genes, respectively. The oleate responsive region of the POT1 promoter is amplified from yeast genomic DNA and along with the firefly and Renilla luciferase genes (firefly gene from pMY30 and Renilla gene from pRL-TK) is cloned into these vectors to obtain the constructs pPM3 and pPM5. These plasmid constructs are linearized using suitable restriction enzymes in the selection marker and transformed into wild type strains of S. cerevisiae and P. pastoris by standard transformation methods-Lithium acetate or PEG based transformation. […]
To validate the luciferase assay developed in the laboratory, it is compared to the conventional Pot1-GFP processing assay, Both pexophagy and general autophagy are measured by following the rates of degradation of firefly and Renilla activities (FIG. 1A).
Thus, a 3 standard deviation (SD) parameter is used as a criterion to obtain the hits from the primary screen. […] Both the inhibitors show a dose dependent inhibition in autophagy as determined using luciferase assay wherein inhibition by concentrations 1 μM, 10 μM, 25 μM and 50 μM of the inhibitors are assessed and inhibition is observed to increase as concentration increases from 1 μM to 50 μM. […]

The test system of assay [4] is p62. As to the kind of experiment: p62 co-localization with mRFP-MAP1LC3B in HeLa cells. Type of assay: cell-based, human. The protocol: Appropriate number of cells are plated on top of coverslips placed in 65 mm cell culture dishes for transfection. Transfected cells are divided into different treatment groups. Post treatment, cells are washed with PBS and fixed in 4% paraformaldehyde and permeabilized using 0.25% Triton X-100, Overnight incubation with Anti-p62/SQSTM1 (rabbit polyclonal, #PM045), Anti-EEA1 (rabbit polyclonal, CST #3288) is done at 4° C. Excess antibody is washed with PBS and coverslips are incubated with Atto-633 (goat anti-rabbit IgG, Sigma #41176). The coverslips are mounted with […] antifade reagent (H-1000/H-1200, Vector laboratories). Imaging for HeLa cells is carried out using Delta vision microscope (Olympus 60×/1.42, Plan ApoN, excitation and emission filter Cy5, FITC and TRITC, polychroic Quad).
ImageJ software (NIH) is used to calculate the mean intensity. Images are opened using the split channel plugin. Co-localization plugin in the analysis tools is used to obtain the colocalized area between two channels as a separate window. The intensity is calculated using the measure plugin in analysis tools.

The test system of assay [5] is p62, MAP1LC3B-II. The assay is described as follows: p62 and MAP1LC3B immunoblotting in Atg5+/+ and Atg5−/− MEFs. The format is cell-based, mouse. The settings on record: 5 μM, 24 h. The protocol: Western blotting is performed using standard methods. Immunoblotting in MEFs is carried out as described previously. Dilutions of primary antibodies used are as follows: Anti-p62 1:1000 (Progen Biotechnik, GP62-C), Anti-MAP1LC3B 1:3000 (Nevus Biologicals, NB100-2220) and Anti-GAPDH (Cell Signalling Technologies, 2118S). Secondary antibodies conjugated to HRP are used at 1:10000 dilution as follows: Anti-Guinea-Pig-HRP (Abeam, ab50210) and Anti-Rabbit-HRP (Calbiochem, 401393).
(In general: In western blotting, separated proteins are transferred to a membrane and probed.)

In the case of `Cc1ccc(S(=O)(=O)/C=C/C#N)cc1` [Bay11, 3-[(4-methylphenyl)sulfonyl]-(2E)-propenenitrile], the “degradation of peroxisomes (Pot1-GFP)” value in assay [1] (starvation) is given as “delay the degradation of peroxisomes”. For the same molecule, the “localisation of peroxisomes (fluorescence microscopy)” value in assay [1] (starvation, 25 μM Bay11, 50 μM ZPCK) was “accumulate outside the vacuoles”. In addition, the “free GFP release from Pot1-GFP” value in assay [1] (wild type cells, up to 6 hours of starvation) is listed as “No free GFP release”. The “mean number of Atg8 puncta per cell” value in assay [2] was determined as 0.22±0.03. In addition, the “effect on rates of degradation of firefly luciferase (inhibition of autophagy)” value in assay [3] was “dose dependent effect”. Also, the “p62 accumulation relative to mRFP-MAP1LC3B-positive compartments” value in assay [4] is listed as “outside”. Moreover, in assay [5], the “MAP1LC3B-II levels in Atg5+/+ MEFs” value is listed as “reduces MAP1LC3B-II levels”, the “endogenous p62 levels in Atg5+/+ MEFs” value was “significantly increases endogenous p62 levels” and the “endogenous p62 levels in Atg5−/− MEFs” value is “no significant effect”.
